According to PMC7714489 (Journal of medicinal chemistry, 2015):

Tests used:
Assay type in all cases: cell-based
[1] = tested on: cellular GAPDH levels; experiment: Effect on cellular GAPDH levels; settings: 100 μM; data not shown
[2] = tested on: PC3 cells (a human prostate cancer cell line); experiment: Toxicity in PC3 cells; settings: 100 μM; data not shown
[3] = tested on: thymidine uptake; experiment: Effect on thymidine uptake; settings: 100 μM; data not shown
[4] = tested on: HepG2 cells; experiment: Lactate production assay; settings: 10 μM, HepG2, 14 days
[5] = tested on: subgenomic HCV replicon in Huh-7 cells; experiment: HCV subgenomic replicon assay in Huh-7 cells; settings: Huh-7 replicon

Row | SMILES | effect on cellular GAPDH levels [1] | toxicity in PC3 cells [2] | effect on thymidine uptake [3] | cell death in lactic acid experiment [4] | inhibition of HCV RNA replication (in words) [5]
1 | CCOC(=O)CCc1ccccc1O[P@@](=O)(N[C@@H](C)C(=O)OCC)OC[C@H]1O[C@@H](n2cnc3c(N)nc(N)nc32)[C@](C)(O)C1O (stereo in doubt) [15b(Rp), Ethyl 3-(2-(((R)-(((2R,3R,4R,5R)-5-(2,6-Diamino-9H-purin-9-yl)-3,4-dihydroxy-4-methyltetrahydrofuran-2-yl)methoxy)(((S)-1-ethoxy-1-oxopropan-2-yl)amino)phosphoryl)oxy)phenyl)-propanoate] | did not observe | did not observe any toxicity | did not observe | – | –
2 | COc1nc(N)nc2c1ncn2[C@@H]1O[C@H](COP(=O)(N[C@@H](C)C(=O)OCC(C)(C)C)Oc2cccc3ccccc23)[C@@H](O)[C@@]1(C)O (stereo partly drawn) [compound 1, reference compound] | – | – | – | excessive cell death | nanomolar potency
3 | CCOC(=O)CCc1ccccc1OP(=O)(OC[C@H]1O[C@@H](n2cnc3c(N)nc(N)nc32)[C@](C)(O)[C@@H]1O)Oc1ccccc1CCC(=O)OCC [compound 18] | – | – | – | – | inactive
